How the values were obtained:
[1] = 14C gemcitabine bladder perfusion vs IV bolus, blood/urine/tissue content; format: in vivo, male Sprague Dawley rats
Description: A study was conducted on male Sprague Dawley rats administering ^14C gemcitabine by intra-urinary bladder cannula, over a 6- or 24-hour continuous perfusion, or by a single IV bolus. The 6- and 24-hour continuous perfusions perfused 6.9 and 26.6 mg, respectively, of gemcitabine into the bladder. The single IV bolus included 5.0 mg of gemcitabine. Blood (FIG. 8), urine, and tissue samples (e.g., bladder, prostate) (FIGS. 7 and 9) were collected and analyzed for gemcitabine content. The results are illustrated in FIGS. 7-9. […] The gemcitabine levels observed for each of the bladder epithelium, lamina propria, muscularis, and adventitia are shown in FIG. 14, which also illustrates a target effective range for the gemcitabine tissue concentration.

[2] = Gemcitabine release systems vs intravesical instillation in hounds; format: in vivo, large mixed breed hounds; settings: intravesical instillation mimicking standard clinical doses
Description: Two gemcitabine release systems (devices as shown in FIGS. 1A-1B) designed to release therapeutic levels (4 mg/day and 40 mg/day) into the urine were screened. The devices used either laser-drilled orifices or punched orifices for release of the gemcitabine. The systems tested were compared to intravesical instillations which were designed to mimic the standard intravesical doses used clinically. The test animals were large mixed breed hounds, with N=3 for each group.
In vivo, one system yielded very low urine and tissue concentrations but was well tolerated by the test animal. The other system produced target urine concentration levels but was poorly tolerated by the test animal. Urine profiles were also variable and the duration of drug release was unacceptably short.

[3] = minipig, in vivo
Description: Varying concentrations of gemcitabine were perfused into pigs for 7 days, N=5 (2 males and 3 females per treatment group). The perfusion animals were dosed at concentrations selected to bracket the target doses for bladder cancer in humans. For comparison, a gemcitabine releasing device (as shown in FIGS. 1A-1B) with large bore end caps (restraining plugs with a large aperture therethrough for drug release) with an intermediate in vitro release rate was deployed in a separate group of animals.

With `Nc1ccn([C@@H]2O[C@H](CO)[C@@H](O)C2(F)F)c(=O)n1` [gemcitabine, 2′,2′-difluorodeoxycytidine] the “gemcitabine levels in bladder tissue” value ([1]; 6- or 24-hour continuous bladder perfusion, sustained urine concentrations) was “at or exceed therapeutic concentrations”, the “concentration of gemcitabine in the bladder” value ([1]; 24 hours after a clinically relevant IV dose, compared with perfusion) was “significantly lower concentration” and the plasma/systemic exposure ([1]; continuous delivery by intravesical administration) was “without significant plasma/systemic exposure”. For the same compound, the urothelial lesions [2] was “significant urothelial lesions” and the tolerability [3] was “tolerated gemcitabine well”.

Reference: patent US12582599B2, “Methods for treatment of bladder cancer with gemcitabine” (TARIS Biomedical LLC, priority 2014, dated 2026)
